Data taken from US4916141A, “(S)-7-(3-amino-1-pyrrolidinyl)-1-cyclop ropyl-6-fluoro-1,4-dihydro-4-oxo-1,8-naphthyridine-3-carboxylic acid” (Warner-Lambert Company, priority 1989, dated 1990).
In brackets after ≈: the same amount, converted by molar mass. Structures can show the parent of a compound that is named as a salt.

Experiments:
[1] = system: Streptococcus pneumoniae SV-1; experiment: acute mouse protection test (PD50); assay type: in vivo, mouse (female Charles River CD-1); conditions: for median protective dose (PD50) P.O.: oral; for median protective dose (PD50) S.C.: subcutaneous
Method: (§1) The in vivo experiments on the bacteria named are expressed in terms of median protective doses (PD50) on the test animals to which the compounds were administered orally and subcutaneously. The measurement of PDso was carried out according to the following procedure:
(§2) Therapeutic activities of the compounds were compared in acute mouse protection tests in which 18-22 g female Charles River CD-1 mice were used. Oral and subcutaneous doses in twofold rising incremental series were administered concurrently with bacterial challenge. Challenges were accomplished by the intraperitoneal injection of an estimated 100 median lethal doses in 0.5 ml volumes of 5% hog gastric mucin or tryptic soy broth. Generally, greater than 90% of the untreated controls died within 48-72 hours. Final survival percentages, obtained after 4-7 days of observation among groups of 8-16 mice, were used to estimate median protective doses (PD50) by the log-probit method.

Escherichia coli Vogel [2] = experiment: acute mouse protection test (PD50); assay type: in vivo, mouse (female Charles River CD-1); conditions: for median protective dose (PD50) P.O.: oral; for median protective dose (PD50) S.C.: subcutaneous
Method: as §1, §2

[3] = system: Pseudomonas aeruginosa UI-18; experiment: acute mouse protection test (PD50); assay type: in vivo, mouse (female Charles River CD-1); conditions: for median protective dose (PD50) P.O.: oral; for median protective dose (PD50) S.C.: subcutaneous
Method: as §1, §2

[4] = system: Staphylococcus faecalis MGH-2; experiment: acute mouse protection test (PD50); assay type: in vivo, mouse (female Charles River CD-1); conditions: for median protective dose (PD50) P.O.: oral; for median protective dose (PD50) S.C.: subcutaneous
Method: as §1, §2

[5] = system: Staphylococcus aureus UC-76; experiment: microtitration dilution MIC; assay type: cell-based; conditions: UC76, read-out: minimum inhibitory concentration (MIC)
From the text: (§3) The compounds of the invention display antibacterial activity when tested by the microtitration dilution method as described in Heifetz, et al, […]. Agents and Chemot. 6, 124 (1974), which is incorporated herein by reference. […] Pat. No. 4,649,144.

[6] = system: Streptococcus pneumoniae SV-1; experiment: microtitration dilution MIC; assay type: cell-based; conditions: SV1, read-out: minimum inhibitory concentration (MIC)
From the text: as §3

[7] = system: Staphylococcus aureus H 228; experiment: microtitration dilution MIC; assay type: cell-based; conditions: H228, read-out: minimum inhibitory concentration (MIC)
From the text: as §3

Escherichia coli Vogel [8] = experiment: microtitration dilution MIC; assay type: cell-based; conditions: read-out: minimum inhibitory concentration (MIC)
From the text: as §3

[9] = system: Streptococcus pyogenes C-203; experiment: microtitration dilution MIC; assay type: cell-based; conditions: C203, read-out: minimum inhibitory concentration (MIC)
From the text: as §3

[10] = system: Klebsiella pneumoniae MGH-2; experiment: microtitration dilution MIC; assay type: cell-based; conditions: MGH2, read-out: minimum inhibitory concentration (MIC)
From the text: as §3

[11] = system: Pseudomonas aeruginosa UI-18; experiment: microtitration dilution MIC; assay type: cell-based; conditions: UI18, read-out: minimum inhibitory concentration (MIC)
From the text: as §3

[12] = system: Enterobacter cloacae MA 2646; experiment: microtitration dilution MIC; assay type: cell-based; conditions: MA2646, read-out: minimum inhibitory concentration (MIC)
From the text: as §3

[13] = system: Staphylococcus faecalis MGH-2; experiment: microtitration dilution MIC; assay type: cell-based; conditions: MGH2, read-out: minimum inhibitory concentration (MIC)
From the text: as §3

Proteus rettgeri M 1771 = experiment: microtitration dilution MIC; assay type: cell-based; conditions: Providencia rettgeri, M1771, read-out: minimum inhibitory concentration (MIC)
From the text: as §3

[14] = system: gram-positive and gram-negative bacteria; experiment: antibacterial activity in vitro and in vivo (summary statement); conditions: in vitro as well as in vivo
From the text: The compounds of the invention display antibacterial activity when tested by the microtitration dilution method as described in Heifetz, et al, Antimicr. Agents and Chemot. 6, 124 (1974), which is incorporated herein by reference. By the use of the above reference method, the following minimum inhibitory concentration values (MICs in μg/ml) were obtained for the compound of the present invention, (S)-7-(3-amino-1-pyrrolidinyl)-1-cyclopropyl-6-fluoro-1,4-dihydro-4-oxo-1,8-naphthyridine-3-carboxylic acid, the corresponding (R) isomer and the racemic compound as described in U.S. Pat. No. 4,649,144.
as §1
as §2, with “Final survival percentages, obtained after 4-7 days of observation among groups of 8-16 mice, were used to estimate median protective doses (PD50) by the log-probit method.” left out

Row | Structure (SMILES) | median protective dose (PD50) P.O. [1] | median protective dose (PD50) S.C. [1] | median protective dose (PD50) P.O. (Escherichia coli Vogel [2]) | median protective dose (PD50) S.C. (Escherichia coli Vogel [2]) | median protective dose (PD50) P.O. [3] | median protective dose (PD50) S.C. [3] | median protective dose (PD50) P.O. [4] | median protective dose (PD50) S.C. [4] | MIC [5] [µg/mL] | MIC [6] [µg/mL] | MIC [7] [µg/mL] | MIC (Escherichia coli Vogel [8]) [µg/mL] | MIC [9] [µg/mL] | MIC [10] [µg/mL] | MIC [11] [µg/mL] | MIC [12] [µg/mL] | MIC [13] [µg/mL] | MIC (Proteus rettgeri M 1771) [µg/mL] | antibacterial activity compared with R isomer and racemic compound [14] | antibacterial activity compared with R isomer and racemic compound ([14]; listed as S form)
1 | NC1CCN(c2nc3c(cc2F)c(=O)c(C(=O)O)cn3C2CC2)C1 (racemic) [Racemic, 7-(3-amino-1-pyrrolidinyl)-1-Cyclopropyl-6-fluoro-1,4-dihydro-4-oxo-1,8-naphthyridine-3-carboxylic acid] | 32 | 14 | 2.0 | 0.6 | 7.3 | 3.2 | 58 | 33 | 0.013 (≈ 0.0391 µM) | 0.2 (≈ 0.602 µM) | 0.2 (≈ 0.602 µM) | 0.013 (≈ 0.0391 µM) | 0.2 (≈ 0.602 µM) | 0.025 (≈ 0.0752 µM) | 0.05 (≈ 0.15 µM) | 0.025 (≈ 0.0752 µM) | 0.2 (≈ 0.602 µM) | 0.1 (≈ 0.301 µM) | – | –
2 | N[C@@H]1CCN(c2nc3c(cc2F)c(=O)c(C(=O)O)cn3C2CC2)C1 ["R" Isomer, (R)-7-(3-Amino-1-pyrrolidinyl)-1-cyclopropyl)-6-fluoro-1,4-dihydro-4-oxo-1,8-naphthyridine-3carboxylic acid hydrochloride] | – | – | 0.51 | 0.35 | – | – | 45 | 34 | 0.05 | 0.1 | 0.2 | 0.013 | 0.2 | 0.025 | 0.4 | 0.025 | 0.2 | 0.05 | – | –
3 | N[C@H]1CCN(c2nc3c(cc2F)c(=O)c(C(=O)O)cn3C2CC2)C1 ["S" Isomer, (S)-7-(3-Amino-1-pyrrolidinyl)-1-cyclopropyl-6-fluoro-1,4-dihydro-4-oxo-1,8-naphthyridine-3-carboxylic acid] | 19 | 9 | 0.7 | 0.35 | 3.5 | 2.1 | 19 | 14 | 0.013 (≈ 0.0391 µM) | 0.05 (≈ 0.15 µM) | 0.05 (≈ 0.15 µM) | 0.006 (≈ 0.0181 µM) | 0.05 (≈ 0.15 µM) | 0.013 (≈ 0.0391 µM) | 0.1 (≈ 0.301 µM) | 0.013 (≈ 0.0391 µM) | 0.1 (≈ 0.301 µM) | 0.025 (≈ 0.0752 µM) | not only better than its opposite R isomer but also better than the racemic compound | significantly better activity against both gram-positive and gram-negative bacteria in vitro as well as in vivo
